Read-outs that look alike come from different tables or passages of the source.

A short description of data set [1]: Quenching of acridine orange fluorescence on incorporation into liposomes. It is filed as physicochemical. Conditions: liposomes with external ammonium sulfate removed. The protocol:
In order to further substantiate the existence of the ammonium gradient, the same experiment as described above was repeated with the other compounds such as acridine orange, a cytotoxic drug acridine orange is an amphiphatic weak base (pK=9.25), which has the advantage of being fluorescent. Instead of trapping pyranine inside the ammonium sulfate liposomes, liposomes were added to a solution containing acridine orange. The quenching of the resulting solution was monitored following partitioning into the aqueous phase of the liposome, using the experimental designs described in Example 5 and illustrated in FIG. 2.
Inset graph is an example of one of the experiments. Percentage of fluorescence intensity (F.I.) of acridine orange was monitored continuously and is shown here as (a). At the specified time (b) liposomes were added and the quenching was followed. At steady state, 5 um of nigericin was added, shown here as (c) and the extent of the release of quenching was used to calculate the ammonium sulfate gradient dependent fluorescence intensity. The details of the experiment are described in Example 5.
1 umol of acridine orange was added to a solution containing different proportions of potassium chloride and ammonium sulfate. The solution was designed to get different outside-inside gradients of ammonium sulfate when the liposomes are added. […] The recovery of fluorescence was monitored. […]

The conditions of data set [2]: cited from earlier work.
The conditions of data set [3]: Biochemistry, 21:3927-3932; cited from earlier work.
The nature of data set [4]: Loading of doxorubicin into ammonium sulfate liposomes (NH4+ gradient), Dowex removal of free drug. It is filed as physicochemical. The settings on record: biphasic, FIG. 3.
Experimental: Two preparations of liposomes were used, one composed of EPC and cholesterol in molar ratio of 2:1; and second of DPPC and cholesterol in molar ratio 2:1.
The loading was started after removal of external untrapped ammonium sulfate by Sephadex G-50 gel exclusion chromatography.
Dowex binds Desferal and therefore the latter was added to final concentration of 0.5 mM immediately after the removal of the free drug by Dowex.
In order to determine the concentration of a loaded drug inside liposomes, the internal aqueous osmotic volume of the vesicles was measured. This was done by the entrapment of the non-measurable radioactive tracer ^3 H inulin. The comparison of the radioactivity per mole phospholipids before and after removal of the untrapped inulin was used to determine trapped volume using a procedure described in individual examples.
In all cases the gradient was obtained by gel exclusion chromatography of the liposomes after ammonium sulfate loading.
The incubation was shorter for certain types of kinetic experiments. At the end of incubation period, the mixture was passed through a Dowex 50 WX-4 (Serva) column to adsorb the free, unincorporated drug. […] A column containing 1-2 g dry weight of the resin was sufficient to adsorb all unincorporated drug. […] EPC was used for a standard curve.
The mixture was incubated at room temperature for approximately 24 hours. […]
The nature of data set [5]: Self-quenching of doxorubicin fluorescence. It is filed as physicochemical. As for the experimental part: The measurements were carried on a Perkin-Elmer MPF-44 spectrofluorometer, using excitation/emission wavelengths of 470 nm and 590 nm respectively. […] This was calculated from the difference between the fluorescence of the liposomes prepared according to Examples 1-4, and the fluorescence of the same mixture after diluting it 10 times with isopropanol containing 10% of 0.75% HCI. […] A correction for the difference in fluorescence of doxorubicin in water and the acidified isopropanol solution, deduced from measurements of the fluorescence of "free" drug in the two solutions, was introduced. The small amount of unquenched doxorubicin is probably due to some free-drug that leaked out of the vesicles.

The conditions of data set [6]: around 24 hours; cited from earlier work.
Data set [7] in a line: Loading of daunorubicin into ammonium sulfate liposomes.
Experimental: After separation of untrapped ammonium sulfate by Sephadex G- 50, 1 ml of the liposome dispersion was mixed with 10 mg of daunorubicin dissolved in 1 ml of 50° C. and at specified time intervals aliquots were taken.
The conditions of data set [8]: sodium/potassium gradient with valinomycin; cited from earlier work.
On data set [9], the source says: For this, ammonium carbonate (0.12M) was placed in a beaker. The ultrasound probe was attached to the beaker.

As to `CN(C)c1ccc2cc3ccc(N(C)C)cc3nc2c1` [Acridine orange], the “Quenching of acridine orange fluorescence” value in data set [1] is recorded as 96.5%. Moreover, the pK in data set [2] is 9.25.

For `COc1cccc2c1C(=O)c1c(O)c3c(c(O)c1C2=O)C[C@@](O)(C(=O)CO)C[C@@H]3O[C@H]1C[C@H](N)[C@H](O)[C@H](C)O1` [Doxorubicin], the “Concentration above which dimers and aggregates form” value in [3] is given as “higher than 1 um”. The “Duration of slower phase of loading” value in [4] was “about 24 hours”. Moreover, in data set [5] (in saline), the “Concentration above which fluorescence is quenched” value is on record as “higher than 10^-6 M”. In addition, the Quenching in [5] (in solution, concentration 1.7.10^-4, corrected for inner filter effect) is given as 33%; in data set [5] (in solution, concentration 3.4.10^-5, corrected for inner filter effect), 16%; in data set [5] (in solution, concentration 6.9.10^-5, corrected for inner filter effect) it was 25%; in data set [5] (inside the liposomes), around 100%. In addition, the Leakage from liposomes result in [6] is “substantial leakage”.

On to `COc1cccc2c1C(=O)c1c(O)c3c(c(O)c1C2=O)C[C@@](O)(C(C)=O)C[C@@H]3O[C@H]1C[C@H](N)[C@H](O)[C@H](C)O1` [Daunorubicin], for which, in data set [7], the “Rate of incorporation compared with doxorubicin” value is listed as “higher than that of doxorubicin” and the “Time to completion of incorporation” value is recorded as “less than one hour”.

Take `CCCCOc1cc(C(=O)NCCN(CC)CC)c2ccccc2n1` [Dibucaine]: the Loading result in [8] is on record as “up to 52%”.

With `N.N.O=C(O)O` [ammonium carbonate], the Ultrasound signal result in data set [9] (HCl added to pH 4.0) is “large signal”; in data set [9] (before acidification, 0.12M), “No signal was observed”.
